The test system of series [1] is SDMA/HCT116-MTAPwt. As to the kind of experiment: In-cell arginine symmetric dimethylation inhibition (In-cell western, ICW), wild-type cells. It is filed as cell-based. The note with it: Homo sapiens, HCT-116, 96 hours. The procedure: (§1) 60 nL of different concentrations of compounds were added to each well using an Echo, and incubated at 37°C, 5% CO2 for 96 hours.
(§2) Next, 50 µL of 4% paraformaldehyde solution was added to each well and incubated at room temperature for 20 minutes to fix the cells. The solution in the wells was removed, and each well was rinsed four times with PBS solution containing 0.1% Tween 20 (PBST). To each well was then added 30 µL of ice-cold methanol. After standing at -20°C for 10 minutes, the methanol was removed and the wells washed four times with PBST. 30 µL of Odyssey blocking solution containing 0.5% Tween 20 was added to each well and shaken for 2 hours at room temperature. The blocking solution was removed and 30 µL of primary antibody (Symmetric Di-Methyl Arginine Motif [sdma-RG] MultiMab™ Rabbit mAb mix) diluted at 1:500 in Odyssey blocking solution containing 0.5% Tween 20 was added to each well. The plates were incubated overnight at 4°C, before removing the primary antibody and rinsing each well four times with PBST, 5 minutes per rinse. Secondary antibody (goat anti-rabbit IRDye 800CW, 1:800) and nuclear stain (DRAQ5, 1:10000) diluted in Odyssey blocking solution containing 0.5% Tween 20 were then added to each well before incubating at room temperature for 2 hours in the dark. The secondary antibody was removed, and the wells rinsed four times with PBST.
(§3) The sdme-RG and DRAQ5 signals were scanned at 800 nm and 700 nm respectively on a Li-Cor Odyssey instrument and the signal values recorded. The sdme-RG/DRAQ5 ratio was used to calculate the percentage inhibition of arginine symmetric dimethylation (SDMA), and the IC50 value calculated using GraphPad Prism software.

Series [2] has as its system MDR1 (P-gp). In words: in vitro. The conditions noted are these: dog, MDCK-MDR1, pH 7.4. The procedure: (§4) The membrane permeability of the molecules of the present invention was evaluated to predict their permeability to the brain.
(§5) The specific procedure was: 1. MDCK-MDR1 cells were pre-cultured at a density of 1.56*10^6 cells/mL in a 96-well plate at 37°C for 7 days. 2. The MDCKII-MDR1 plate was taken out of the incubator, rinsed twice with pre-warmed HBSS (10 mM HEPES, pH 7.4), and then incubated at 37°C for 30 minutes. 3. The stock solution of the compound to be tested was diluted with DMSO to obtain a 0.2 mM solution, and then diluted with HBSS (10 mM HEPES, pH 7.4) to obtain a 1 µM working solution. A blank control group was also diluted with DMSO to obtain a 0.2 mM solution, and then diluted with HBSS (10 mM HEPES, pH 7.4) to obtain a 1 µM working solution. The final concentration of DMSO in the culture system was 0.5%. 4. The transport rate of the drug in the apical to basolateral direction was determined: 125 µL of the 1 µM test compound solution was added to a Transwell insert (top compartment), before immediately transferring a 50 µL sample (D0 sample) from the top comparment to a new 96-well plate. The receiving plate wells (basolateral compartment) were filled with 235 µL HBSS (10 mM HEPES, pH 7.4) and incubated at 37°C for 2 hours. 5. Upon completion of the incubation, 50 µL samples were transferred from the donor and acceptor sides to the wells of a new 96-well plate, before adding 4 volumes of cold acetonitrile containing an appropriate internal standard (IS). Prior to LC-MS/MS analysis, 100 µL of the supernatant was taken and mixed with an appropriate volume of ultrapure water. Papp = (VA×[drug]acceptor)/(Area×Time×[drug]initial,donor) [formula] where VA is the volume of the receptor pores (unit:mL), Area is the surface area of the membrane (0.143 cm^2 for a Transwell-96 well permeable support), and time is the total transport time in seconds. Efflux Ratio = Papp(B−A) /Papp(A−B) [formula]

Series [3] can be described thus: in vitro. The note with it: dog, MDCK-MDR1, pH 7.4. The procedure: as §4, §5
Series [4] is described as follows: Mouse pharmacokinetics testing. The conditions noted are these: female, CD1, mouse, in vivo. It is filed as in vivo, CD1 female mice. The procedure:
CD1 female mice were used as test animals and administered the compounds orally/intravenously (oral dosage was 10 mg/kg and intravenous dosage was 2 mg/kg). Test protocol: Each oral and intravenous group consisted of three mice. […] Plasma drug concentrations after oral and intravenous administration were determined by LC/MS/MS, and the collected data analyzed using AB Sciex QTRAP 6500 software.

Series [5] is described as follows: Liver microsomal stability assay, mouse. In kind it is in vitro ADME. The conditions noted are these: mouse liver microsomes 0.5 mg/mL, compound 1 µM, NADPH 1 mM, 60 minute.
Procedure: (§6) The compounds to be tested were co-incubated with liver microsomes of different species with or without the addition of NADPH. The final concentration of the test compounds in the test system was 1 µM, the final concentration of NADPH was 1 mM, and the final concentration of liver microsomes was 0.5 mg/mL.
Series [6] has as its system HCT116-MTAPdel. As to the kind of experiment: 2D antiproliferative assay (CTG cell viability), MTAP-deficient cells. It is filed as cell-based. The note with it: for IC50: Homo sapiens, HCT-116, HCT116 MTAP-deficient cells, 7-10 days, CTG, read-out: HCT116-MTAPdel/IC50/nM; for HCT116WT IMTAPdel selectivity: ratio IC50 wild type / MTAPdel, antiproliferation.
Series [7] concerns HCT116-MTAPwt. As to the kind of experiment: 2D antiproliferative assay (CTG cell viability), wild-type cells. It is filed as cell-based. The conditions noted are these: Homo sapiens, HCT-116, 7-10 days.
In series [8] the test system is SDMA/HCT116-MTAPdel. As to the kind of experiment: In-cell arginine symmetric dimethylation inhibition (In-cell western, ICW), MTAP-deficient cells. It is filed as cell-based. The procedure:
as §1, §2, §3

For series [9], the target named is hERG channels (Homo sapiens, UniProt Q12809). As to the kind of experiment: cell-based.
Procedure: The CHO hERG-Duo cell line stably expressing hERG channels was purchased from B'SYS GmbH and screened for monoclonal clones using the patch clamp system of Pharmaron Beijing Co., Ltd. The cells were cultured in a medium containing F12 (HAM) medium, 10% fetal bovine serum, 100 U/mL penicillin-streptomycin, 100 µg/mL hygromycin, and 100 µg/mL G418.
The membrane was depolarized to +30 mV for 4.8 seconds before returning the voltage to -50 mV for 5.2 seconds to remove inactivation and measure the deactivation tail current. The sampling interval was 15 seconds, and the peak tail current size was used to quantify the hERG current amplitude.
A blank vehicle was applied to the cells to establish a baseline. Test samples were introduced after stabilizing the hERG current for at least 5 minutes. In the presence of the test compound, the hERG current at different working concentrations was recorded for no less than 5 minutes until reaching a steady state, before capturing 5 sweeps. If a steady state was not reached within 10 minutes, the mean peak current of the last 5 sweeps was taken instead of the steady-state value. […] Peak current inhibition = (1−(Peak tail currentcompound −Peak tail currentpositive control)/(Peak tail currentBlank vehicle −Peak tail currentpositive control)) × 100 [formula]
Series [10] is described as follows: Liver microsomal stability assay, human. The note with it: liver microsomes. A general note: Microsomes from liver hold many membrane-bound enzymes, among them those of drug oxidation.
Procedure: as §6
Series [11] has as its system HUP-T4 (MTAPdel) human pancreatic cancer tumor cells. As to the kind of experiment: In vivo efficacy, HUP-T4 subcutaneous xenograft. On the set-up: species or system BALB/c nude mice. The note with it: BID, oral; for TGI: 28 consecutive days; for Tumor volume (mm^3)-D1: D1 (baseline at start of dosing). The procedure: HUP-T4 (MTAPdel) human pancreatic cancer tumor cells (MEM medium with 10% fetal bovine serum) were cultured and inoculated into 6-8 week old female BALB/c nude mice (weighing about 25 g), with all mice subcutaneously inoculated. The mice were cultured in an SPF-grade environment, and all mice had free access to commercially certified standard diets. Test compounds were orally administered daily once the average tumor volume of the mice grew to about 176 mm^3. The control group received blank solvent (0.1% TW80+0.5% methylcellulose+99.4% saline), while the test group received a drug dose of 75 mg/kg or 50 mg/kg, twice a day. Tumor volume was measured in two dimensions with calipers three times a week, and the animals were weighed every day. […] Voume calculation formula: V=1/2a*b^2, where a denotes the long diameter of the tumor, and b the short diameter of the tumor.

Series [12] can be described thus: in vitro. The conditions noted are these: human, microsomes.
Procedure: as §6

pIC50: −log10 of the molar value.

hERG channels, sequence (Q12809 whole entry): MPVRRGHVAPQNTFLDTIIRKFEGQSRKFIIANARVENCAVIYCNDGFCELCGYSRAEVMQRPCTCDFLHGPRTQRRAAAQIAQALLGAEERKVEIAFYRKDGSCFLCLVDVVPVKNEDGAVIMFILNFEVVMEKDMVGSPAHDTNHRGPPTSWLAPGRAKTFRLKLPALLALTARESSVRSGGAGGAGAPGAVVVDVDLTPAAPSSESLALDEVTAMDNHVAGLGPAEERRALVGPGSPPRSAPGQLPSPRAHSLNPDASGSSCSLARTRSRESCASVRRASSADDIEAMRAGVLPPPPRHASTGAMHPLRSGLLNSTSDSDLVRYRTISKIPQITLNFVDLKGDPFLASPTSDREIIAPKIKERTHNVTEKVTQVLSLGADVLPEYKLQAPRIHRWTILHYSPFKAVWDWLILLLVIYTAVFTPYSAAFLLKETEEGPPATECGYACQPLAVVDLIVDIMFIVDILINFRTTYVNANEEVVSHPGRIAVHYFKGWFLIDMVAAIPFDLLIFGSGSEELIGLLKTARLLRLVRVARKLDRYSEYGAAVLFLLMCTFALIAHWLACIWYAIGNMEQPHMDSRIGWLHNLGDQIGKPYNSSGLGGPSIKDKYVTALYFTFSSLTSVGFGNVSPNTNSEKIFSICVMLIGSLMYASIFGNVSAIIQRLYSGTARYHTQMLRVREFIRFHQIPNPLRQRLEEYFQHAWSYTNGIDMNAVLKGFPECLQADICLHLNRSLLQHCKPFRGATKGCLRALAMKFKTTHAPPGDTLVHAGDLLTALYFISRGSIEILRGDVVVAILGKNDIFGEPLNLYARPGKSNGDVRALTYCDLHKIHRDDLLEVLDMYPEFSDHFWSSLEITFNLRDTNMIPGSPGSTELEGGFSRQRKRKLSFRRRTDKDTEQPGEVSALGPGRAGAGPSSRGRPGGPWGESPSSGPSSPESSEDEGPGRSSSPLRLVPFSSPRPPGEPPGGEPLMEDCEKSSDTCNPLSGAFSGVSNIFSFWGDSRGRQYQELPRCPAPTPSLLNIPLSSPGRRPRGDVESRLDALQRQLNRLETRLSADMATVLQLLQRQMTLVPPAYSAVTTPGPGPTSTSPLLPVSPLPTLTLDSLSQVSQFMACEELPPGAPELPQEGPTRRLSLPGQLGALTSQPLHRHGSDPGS

Take `[2H]C([2H])([2H])N(C(=O)C(=O)Nc1cnc(N)c2c1cnn2C)[C@@H]1COc2cc(SC(F)(F)F)ccc21` [Compound P32]: in series [1], the IC50 was determined as 256 nM. Also, the efflux ratio in series [2] was 1.28. In series [3], this molecule yielded a Papp A→B of 10.5 ×10⁻⁶ cm/s and a Papp B→A of 13.5 ×10⁻⁶ cm/s. For the same molecule, the F in series [4] came to 75%. In series [4] (iv, 2 mg/kg), this molecule gave an AUC(0-t) of 788 ng·h/mL, a C0 of 733 ng/mL, a clearance of 41.8 mL/min/kg and a half-life of 1.4 h. Besides, in series [4] (po, 10 mg/kg), the AUC(0-t) was found to be 2580 ng·h/mL, the peak concentration (Cmax) came out at 798 ng/mL, the Tmax was 0.25 h and the half-life is 1.7 h. Also, the CLint scaled at 1 µM in series [5] came to 242 mL/min/kg. Moreover, in series [6], the IC50 was 9 nM and the “HCT116WT IMTAPdel selectivity” value was found to be 194. In addition, the IC50 in [7] came to 1750 nM. Also, in [8] (Homo sapiens, HCT-116, HCT116 MTAP-deficient cells, 96 hours), the IC50 was determined as 0.3 nM. In series [8] (ratio SDMA IC50 wt / MTAPdel), the “Selectivity wt/MTAPdel” value worked out at 853. In [9], this molecule gave a pIC50 of 5.54. In addition, in [10], the intrinsic clearance (CLint scaled) at 1 µM was determined as 32 mL/min/kg. In series [11] (50 mg/kg), the TGI was determined as 97%, the “Tumor volume (mm^3)-D1” value was 176 mm^3 and the “Tumor volume (mm^3)-D28” value is 198 mm^3. In series [11] (75 mg/kg), the TGI worked out at 104%, the “Tumor volume (mm^3)-D1” value is reported as 176 mm^3 and the “Tumor volume (mm^3)-D28” value turned out to be 140 mm^3.
On to `CN(C(=O)C(=O)Nc1cnc(N)c2c1cnn2C)C1COc2cc(SC(F)(F)F)ccc21` (racemic) [Compound P29], for which the IC50 in series [6] stood at 20 nM; in [7] it was 3300 nM. The “HCT116WT IMTAPdel selectivity” value in series [6] came out at 165. The molecule further gave a CLint scaled at 1 h, 1 µM in [12] of 25.9 mL/min/kg.

In general, efflux ratio refers to the permeability from basolateral to apical divided by that in the opposite direction, in the common usage. As a reminder, the Papp A→B is how fast a substance crosses the layer from the apical side. Broadly, the Papp B→A is the apparent permeability from the basolateral to the apical side of a cell layer. As usually defined, the AUC(0-t) is exposure summed from dosing to a finite time, without extrapolation to infinity. Low readings indicate less exposure, high ones more exposure. A word on the clearance: it is the rate of elimination divided by the concentration. Low values mean inefficient removal, high ones efficient removal. For orientation: half-life means the time in which the quantity being followed falls by half. A higher half-life goes with slow decline. What is called Cmax is the maximum level reached in the sampled fluid or tissue. As usually defined, the Tmax is the time at which the peak concentration occurs. As a reminder, the CLint scaled is the capacity of the preparation to metabolise the compound, expressed as a volume cleared per time. Low readings indicate slow turnover, high ones rapid turnover. As usually defined, the pIC50 is the IC50 on a negative log10 scale, so that one unit is a factor of ten. Low values mean a high IC50, high ones a low IC50.

(Values after patent EP4653435A1, “PRMT5-MTA INHIBITOR” (Suzhou Puhe Biopharma Co., Ltd., priority 2023, dated 2024).)
